From patent US9371365B2, “Modified compstatin with peptide backbone and C-terminal modifications” (The Trustees of the University of Pennsylvania, priority 2009, dated 2016)

Legend:
[1] = In vivo retention: plasma half-life in baboons by LC-MS/MS; set-up: species or system baboon (P. Anubis); conditions: P. Anubis, baboon (P. Anubis), in vivo, iv, 10 mg
Protocol: A 96-well plate HLB Oasis 10 mg (Waters, Milford, Mass.) was employed for extraction. The SPE material was conditioned by addition of 500 μl of methanol followed by addition of 500 μL of milli-Q water. Sample was prepared by addition of the internal standard followed by 1:1 dilution with 4% H3PO4. After loading the sample, washing was carried out with 500 μL of 5% methanol in 0.1% formic acid. Sample was eluted with 150 μL of 65% methanol in 0.1% formic acid and collected in the collection plate. Solvent was evaporated to dryness in a speed-vac concentrator and reconstituted in 5% acetonitrile in 0.1% formic acid. Samples were kept at −20° C. until analysis.
Baboon plasma samples, 40 μL, were mixed with internal standard and dissolved 1:1 with 40 mM ammonium carbonate buffer. Rapigest detergent was added to a final concentration of 0.1%. Disulfide bridges were reduced in 5 mM DTT for 30 min at 60° C. Alkylation of cysteines was done by addition of iodoacetamide to a final concentration of 15 mM and incubation for 30 min in dark. The sample was enzymatically digested by addition of 16 μL of a 1 μG/μL trypsin solution and incubation overnight at 37° C. After that, the sample pH was lowered with 5% TFA to induce detergent degradation. To avoid nonspecific adsorption of very hydrophobic peptides, acetonitrile was added to 20%. The samples were centrifuged at 6° C. and 14000 rpm for 30 min and the supernatant was diluted with 0.1% formic acid to reduce acetonitrile concentration to 10% prior to filtration with a 10 kDa cut-off microcon centrifugal filter (Millipore, Billerica, Mass.). The filter was washed with 50 μL of 10% ACN in 0.1% formic acid and the collected sample was evaporated to dryness and reconstituted with 10% ACN in 0.1% formic acid.
LC-MS/MS analysis was performed on a SYNAPT HDMS (Waters, Milford, Mass.) controlled by MassLynx 4.1 software (Waters) and equipped with a nanoESI source. Each sample was injected in triplicate. A nanoACQUITY UPLC (Waters) system was used for peptide separation by reversed-phase liquid chromatography. After injection, analytes were trapped for 3 min with 3% mobile phase A (0.1% formic acid in water) at 5 μl/min on a 5 μm Symmetry C18 column (180 μm×20 mm, Waters) and further separated on a 1.7 μm BEH130 C18 column (75 μm×150 mm, Waters). The analytical column temperature was held at 35° C. Peptides were separated at flow rate 0.3 μl/min. The gradient was linear 3-40% B (0.1% formic acid in acetonitrile), either 50 min long, or 60 min for the digested samples. The capillary voltage was 3.2 kV, the cone voltage was 35 V and the source temperature was 100° C. [Glu1]-fibrinogen peptide was used for lock-mass correction with a sampling rate of 30 s. Mass spectra were acquired in positive mode over an m/z range 400-2000 Da at scan rate 0.6 s. The time window used for the MS/MS function was ±3 min of the retention time of the selected peptide. The presence of the analyte was confirmed by MS/MS. Selectivity was studied by analysis of blank samples to determine the presence of any interference coeluting with the analyte.
Juvenile baboons (P. Anubis, Baboon Research Resources, University of Oklahoma) weighing 5-8 kg were used. Three baboons were used for the study; one for each compound. All animals received a bolus dose of peptides (10 mg) by injection through the peripheral vein. […]

[2] = molecular target: T1, C3 (Homo sapiens, UniProt P01024); assay: ITC analysis of binding to C3
T1 construct: C3 was purified from fresh human plasma; from tissue; host or cells: fresh human plasma (blood bank of the Hospital of the University of Pennsylvania)
Protocol: C3 was purified from fresh human plasma obtained from the blood bank of the Hospital of the University of Pennsylvania. In brief, the plasma was fractionated with 15% (w/v) PEG 3350, and the pellet was resuspended in 20 mM phosphate buffer, pH 7.8, and then subjected to anion-exchange chromatography on a DEAE-HR 40 column (50×5 cm; Millipore Inc., Billerica, Mass.) with the same buffer. Proteins were eluted with 6 L of a linear gradient (15-70%) of 20 mM phosphate buffer, pH 7.8, containing 500 mM NaCl. C3 was further purified on a size-exclusion Superdex 200 26/60 column (Amersham Biosciences) and a Mono S column (Amersham Biosciences) to separate C3 from C3(H2O).
All titrations were performed in PBS (10 mM phosphate buffer with 150 mM NaCl, pH 7.4) at 25° C. using multiple peptide injections of 2-7 μL each. The raw isotherms were corrected for the heats of dilution by subtracting the isotherms representing peptide injections into the buffer. The resulting isotherms were fitted to a single site of sites models using Origin 7.0 software, and the model that produced the lowest χ^2 value was deemed to be appropriate for the respective data set. The Gibbs free energy was calculated as ΔG=ΔH−TΔS. Each experiment was repeated at least twice.

T1 sequence (P01024 23-667 limits assumed): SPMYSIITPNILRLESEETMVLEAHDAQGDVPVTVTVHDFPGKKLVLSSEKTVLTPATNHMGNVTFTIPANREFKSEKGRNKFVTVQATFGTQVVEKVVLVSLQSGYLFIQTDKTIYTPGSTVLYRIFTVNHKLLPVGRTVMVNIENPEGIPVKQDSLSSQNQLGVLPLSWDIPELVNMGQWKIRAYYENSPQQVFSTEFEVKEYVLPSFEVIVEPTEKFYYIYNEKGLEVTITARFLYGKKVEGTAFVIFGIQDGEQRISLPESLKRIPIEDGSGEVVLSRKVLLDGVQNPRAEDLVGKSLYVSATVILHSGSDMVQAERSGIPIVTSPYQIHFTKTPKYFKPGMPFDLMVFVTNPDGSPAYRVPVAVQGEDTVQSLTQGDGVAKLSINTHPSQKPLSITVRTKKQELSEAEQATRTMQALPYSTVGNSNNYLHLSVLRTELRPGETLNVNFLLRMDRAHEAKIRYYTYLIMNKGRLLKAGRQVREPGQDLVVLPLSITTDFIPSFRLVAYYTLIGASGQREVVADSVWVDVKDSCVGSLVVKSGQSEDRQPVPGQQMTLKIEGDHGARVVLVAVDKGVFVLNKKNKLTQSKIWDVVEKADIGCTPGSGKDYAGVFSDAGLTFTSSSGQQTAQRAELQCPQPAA
T1 sequence (P01024 672-1663 limits assumed): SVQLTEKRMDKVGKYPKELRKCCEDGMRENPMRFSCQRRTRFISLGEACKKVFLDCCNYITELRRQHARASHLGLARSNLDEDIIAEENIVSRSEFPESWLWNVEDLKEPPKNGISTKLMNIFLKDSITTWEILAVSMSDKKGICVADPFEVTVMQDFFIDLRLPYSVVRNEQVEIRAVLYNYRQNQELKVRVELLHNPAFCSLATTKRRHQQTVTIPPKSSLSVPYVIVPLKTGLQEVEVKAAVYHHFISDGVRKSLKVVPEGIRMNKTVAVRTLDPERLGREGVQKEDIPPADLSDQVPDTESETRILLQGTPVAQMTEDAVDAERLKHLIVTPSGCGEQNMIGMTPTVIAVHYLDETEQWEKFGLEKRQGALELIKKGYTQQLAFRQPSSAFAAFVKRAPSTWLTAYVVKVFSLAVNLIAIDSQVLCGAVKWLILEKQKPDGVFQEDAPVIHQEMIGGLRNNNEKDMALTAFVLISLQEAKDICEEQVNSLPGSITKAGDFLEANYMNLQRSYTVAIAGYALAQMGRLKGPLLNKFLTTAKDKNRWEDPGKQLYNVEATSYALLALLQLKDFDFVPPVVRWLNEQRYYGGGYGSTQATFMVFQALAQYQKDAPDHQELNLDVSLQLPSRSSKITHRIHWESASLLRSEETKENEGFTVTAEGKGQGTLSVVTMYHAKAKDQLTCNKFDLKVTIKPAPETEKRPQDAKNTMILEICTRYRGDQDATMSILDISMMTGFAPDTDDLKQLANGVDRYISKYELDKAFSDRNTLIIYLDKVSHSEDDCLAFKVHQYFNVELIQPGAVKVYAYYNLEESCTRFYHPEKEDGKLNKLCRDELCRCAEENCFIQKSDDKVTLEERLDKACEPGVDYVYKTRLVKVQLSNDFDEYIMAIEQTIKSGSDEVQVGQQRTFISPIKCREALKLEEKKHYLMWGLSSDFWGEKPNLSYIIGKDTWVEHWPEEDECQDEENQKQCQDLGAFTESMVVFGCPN

## CC[C@H](C)[C@H](NC(=O)[C@@H]1CSSC[C@H](NC(=O)[C@@H](NC(C)=O)[C@@H](C)CC)C(=O)N[C@@H](C(C)C)C(=O)N[C@@H](Cc2cn(C)c3ccccc23)C(=O)N[C@@H](CCC(N)=O)C(=O)N[C@@H](CC(=O)O)C(=O)N[C@@H](Cc2c[nH]c3ccccc23)C(=O)N(C)CC(=O)N[C@@H](C)C(=O)N[C@@H](Cc2c[nH]cn2)C(=O)N[C@@H](CCCNC(=N)N)C(=O)N1)C(N)=O [Peptide 17, Ac−Ic[CV(^1−MeW)QDW(^N−MeG)AHRC]I-NH2]
[1]
  half-life: ~1 h
[2]; ITC
  ΔH: -14.1 kcal/mol
  ΔH (text): -14.1 kcal/mol
  −TΔS: 2.9 kcal/mol
  −TΔS (text): 2.9 kcal/mol
[2]; ITC, ΔG=ΔH−TΔS
  ΔG: -11.2 kcal/mol
[2]; relative to peptide 14
  rKD ITC: 2.4
  ΔΔG: -0.5 kcal/mol
  ΔΔH: 3.5 kcal/mol
  −TΔΔS: -4.1 kcal/mol
